Target: Recombinant thioredoxin glutathione reductase (TGR) (Schistosoma mansoni, UniProt Q962Y6)
Assay: biochemical
Assay type: biochemical, S. mansoni
Details: not given

Sequence of Recombinant thioredoxin glutathione reductase (TGR) (Q962Y6 1-598): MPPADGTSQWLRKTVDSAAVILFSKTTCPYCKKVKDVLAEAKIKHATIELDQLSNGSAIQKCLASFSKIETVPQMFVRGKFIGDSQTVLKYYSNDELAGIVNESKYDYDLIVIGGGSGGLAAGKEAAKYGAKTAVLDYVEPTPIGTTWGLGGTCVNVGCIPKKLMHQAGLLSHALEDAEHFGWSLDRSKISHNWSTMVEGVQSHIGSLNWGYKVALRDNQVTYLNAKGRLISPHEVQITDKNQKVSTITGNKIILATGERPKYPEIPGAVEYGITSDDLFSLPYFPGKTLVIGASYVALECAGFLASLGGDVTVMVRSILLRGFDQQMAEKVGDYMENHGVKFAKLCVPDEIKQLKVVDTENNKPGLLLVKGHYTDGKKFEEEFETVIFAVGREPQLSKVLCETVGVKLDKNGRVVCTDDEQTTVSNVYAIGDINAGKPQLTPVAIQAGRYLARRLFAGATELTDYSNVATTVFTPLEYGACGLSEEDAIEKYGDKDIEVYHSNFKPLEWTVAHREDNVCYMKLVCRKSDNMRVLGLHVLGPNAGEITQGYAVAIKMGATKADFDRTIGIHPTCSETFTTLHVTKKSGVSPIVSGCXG

SMILES | TGR inhibition, potency in words | IC50 [µM]
Cc1c(-c2ccccc2)no[n+]1[O-] [Compound 50] | less potent than compounds 52, 51, and 56 | 
N#Cc1c(-c2ccc([N+](=O)[O-])cc2)no[n+]1[O-] [Compound 25, 3-cyano-4-(4-nitrophenyl)-1,2,5-oxadiazole-2-oxide] |  | 2.2

Same assay, conditions: read-out: TGR IC50

SMILES | IC50 [µM]
Cc1ccc(-c2no[n+]([O-])c2C#N)cc1 [Compound 27, 3-cyano-4-p-tolyl-1,2,5-oxadiazole-2-oxide] | 11.2
N#Cc1c(-c2cccc(C(F)(F)F)c2)no[n+]1[O-] [Compound 32, 3-cyano-4-(3-(trifluoromethyl)phenyl)-1,2,5-oxadiazole-2-oxide] | 2.5
COc1ccccc1-c1no[n+]([O-])c1C#N [Compound 34, 3-cyano-4-(2-methoxyphenyl)-1,2,5-oxadiazole-2-oxide] | 7.9
[O-][n+]1onc(-c2ccccc2)c1CO [Compound 51] | 11.2
N#Cc1c(-c2ccc(Cl)cc2)no[n+]1[O-] [Compound 22, 4-(4-chlorophenyl)-3-cyano-1,2,5-oxadiazole-2-oxide] | 4
N#Cc1c(-c2cccc(Cl)c2)no[n+]1[O-] [Compound 30, 4-(3-chlorophenyl)-3-cyano-1,2,5-oxadiazole-2-oxide] | 3.5
N#Cc1c(-c2ccc(-c3ccccc3)cc2)no[n+]1[O-] [Compound 28, 4-(biphenyl-4-yl)-3-cyano-1,2,5-oxadiazole-2-oxide] | 15.8
N#Cc1c(-c2ccc(O)cc2)no[n+]1[O-] [Compound 48, 3-cyano-4-(4-hydroxyphenyl)-1,2,5-oxadiazole-2-oxide] | 17.9
N#Cc1c(-c2cccc(Br)c2)no[n+]1[O-] [Compound 31, 4-(3-bromophenyl)-3-cyano-1,2,5-oxadiazole-2-oxide] | 2.8
N#Cc1c(-c2cccc([N+](=O)[O-])c2)no[n+]1[O-] [Compound 55, 3-cyano-4-(3-nitrophenyl)-1,2,5-oxadiazole-2-oxide] | 2.2
O=Cc1c(-c2ccccc2)no[n+]1[O-] [Compound 52] | 0.11
N#Cc1c(-c2cccc(O)c2)no[n+]1[O-] [Compound 46, 3-cyano-4-(3-hydroxyphenyl)-1,2,5-oxadiazole-2-oxide] | 7.1
N#Cc1c(-c2cc(F)cc(-c3no[n+]([O-])c3C#N)c2)no[n+]1[O-] [Compound 45, 4,4′-(5-fluoro-1,3-phenylene)bis(3-cyano-1,2,5-oxadiazole-2-oxide)] | 0.48
N#Cc1c(-c2cccc(-c3no[n+]([O-])c3C#N)c2)no[n+]1[O-] [Compound 43, 4,4′-(1,3-phenylene)bis(3-cyano-1,2,5-oxadiazole-2-oxide)] | 3.5
N#Cc1c(-c2ccccc2)no[n+]1[O-] [Compound 49, reference compound] | 6.3
COc1cccc(-c2no[n+]([O-])c2C#N)c1 [Compound 33, 3-cyano-4-(3-methoxyphenyl)-1,2,5-oxadiazole-2-oxide] | 8.9
N#Cc1c(-c2ccc(Br)cc2)no[n+]1[O-] [Compound 23, 4-(4-bromophenyl)-3-cyano-1,2,5-oxadiazole-2-oxide] | 3.5
COc1cc(-c2no[n+]([O-])c2C#N)cc(OC)c1OC [Compound 38, 3-cyano-4-(3,4,5-trimethoxyphenyl)-1,2,5-oxadiazole-2-oxide] | 8.9
N#Cc1c(-c2ccc(F)c(Br)c2)no[n+]1[O-] [Compound 35, 4-(3-bromo-4-fluorophenyl)-3-cyano-1,2,5-oxadiazole-2-oxide] | 2.8
N#Cc1c(-c2ccc(F)cc2)no[n+]1[O-] [Compound 21, 3-cyano-4-(4-fluorophenyl)-1,2,5-oxadiazole-2-oxide] | 7.9
COc1ccc(-c2no[n+]([O-])c2C#N)cc1 [Compound 26, 3-cyano-4-(4-methoxyphenyl)-1,2,5-oxadiazole-2-oxide] | 10
N#Cc1c(-c2ccc(C(F)(F)F)cc2)no[n+]1[O-] [Compound 24, 3-cyano-4-(4-(trifluoromethyl)phenyl)-1,2,5-oxadiazole-2-oxide] | 7.1

Tested on: freshly perfused S. mansoni worms
Assay: ex vivo parasite killing assay
Assay type: cell-based
Details: not given

SMILES | worms judged to be dead [%]
N#Cc1c(-c2cc(F)cc(-c3no[n+]([O-])c3C#N)c2)no[n+]1[O-] [Compound 45, 4,4′-(5-fluoro-1,3-phenylene)bis(3-cyano-1,2,5-oxadiazole-2-oxide)] | 100
N#Cc1c(-c2cccc(-c3no[n+]([O-])c3C#N)c2)no[n+]1[O-] [Compound 43, 4,4′-(1,3-phenylene)bis(3-cyano-1,2,5-oxadiazole-2-oxide)] | 100

Same assay, conditions: compound at 10 μM, RPMI 1640, 10% FCS, pH 7

SMILES | Approximate ET100 (time for 100% of the worms to die) [h]
N#Cc1c(-c2ccccc2)no[n+]1[O-] [Compound 49, reference compound] | 16 to 18

Reference: patent US20110207784A1, “OXADIAZOLE-2-OXIDES AS ANTISCHISTOSOMAL AGENTS” (THE UNITED STATES OF AMERICA, AS REPRESENTED BY THE …, priority 2008, published 2011)
